Reference: publication PMC5665932, “A novel peptide that improves metabolic parameters without adverse central nervous system effects” (Scientific Reports, 2017)
Where a SMILES comes first, the peptide text is derived from it.

How the values were obtained:
C57BL/6J mice = assay: Tetrad cannabinoid tests (catalepsy, tail temperature, locomotor activity, hot plate); format: in vivo; conditions: n = 6/group
Procedure: C57BL/6J mice were treated i.p. with Pep19 (0.1 or 1 mg/kg), the CB1R agonist WIN55,212-2 (5 mg/kg) or vehicle (n = 6 per group) and evaluated in the tetrad cannabinoid tests. Another group of animals received Pep19 (0.1 or 1 mg/kg) or saline i.p. for 10 days, once a day. In the last day of treatment the animals were subjected to the tetrad cannabinoid tests 30 minutes after the i.p. administration. The CB1 agonist WIN55,212-2 (5 mg/kg) was administrated i.p. 30 minutes before the experiments as a positive control (n = 6 per group).
It was assayed by the bar test[40], 30 min after drug administration. Briefly, each mouse was placed on a bar oriented parallel to and approximately 4 cm above the bench surface. Cataleptic behavior was defined as the time the animal remained motionless holding on to the bar; cutoff = 300 s[41].
It was determined by using a thermal probe (Thermocom®, Nashua, NH 03062, EUA) positioned 50 cm of the animal. The mean of five pictures of five different tail regions was compared between a basal evaluation and another observation 35 min after drug administration.
It was determined by an open field test, in which a mouse was placed in a circular cage (40 cm diameter), 37 min after drug administration. The distance traveled by the animal was recorded for 10 min by the software ANY-MAZE (Stoelting).
The mouse was placed on a heated plate at 56 °C. An experimenter measured the time it took for the mouse to lick the paws or jump off of the hot plate; cutoff = 30 s[42]. The variation between a basal evaluation and another one taken 45 min after drug administration was defined as the result.

CB1R = target: T1, CB1R (Mus musculus, UniProt P47746); assay: Displacement of [3H]SR141716A binding, membranes of 3T3-L1 cells; conditions: membranes (250 μg) of 3T3-L1 cells endogenously expressing CB1R, [3H]SR141716A 3 nM, Pep19 0–10 μM, 1 h at 30 °C, pH 7.8, n = 3; read-out: IC50, displaces [3H]SR141716A binding
T1 construct: Membranes were prepared from 3T3-L1 cells endogenously expressing CB1R; endogenous in cells; host or cells: 3T3-L1 cells (membranes)
T1 sequence (P47746 whole entry): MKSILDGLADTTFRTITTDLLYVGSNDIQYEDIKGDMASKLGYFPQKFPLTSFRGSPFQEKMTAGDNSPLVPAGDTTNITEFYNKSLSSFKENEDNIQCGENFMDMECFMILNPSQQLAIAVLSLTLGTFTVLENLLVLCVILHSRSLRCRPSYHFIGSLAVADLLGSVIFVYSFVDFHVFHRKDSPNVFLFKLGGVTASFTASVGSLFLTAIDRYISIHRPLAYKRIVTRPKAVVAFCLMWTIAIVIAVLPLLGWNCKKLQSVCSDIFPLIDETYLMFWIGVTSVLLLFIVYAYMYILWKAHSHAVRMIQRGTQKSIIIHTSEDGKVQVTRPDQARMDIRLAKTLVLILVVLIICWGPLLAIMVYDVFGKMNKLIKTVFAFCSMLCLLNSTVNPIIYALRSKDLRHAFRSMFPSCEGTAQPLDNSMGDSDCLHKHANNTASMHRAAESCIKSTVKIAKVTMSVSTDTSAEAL
Procedure: Membranes were prepared from 3T3-L1 cells endogenously expressing CB1R, and displacement ligand binding assays were carried out as previously described[8] with minor modifications. Briefly, membranes (250 μg) were incubated with [^3H] SR141716A (3 nM) in 50 mM Tris-Cl, pH 7.8, containing 1 mM EGTA, 5 mM MgCl2, and protease inhibitor cocktail in the presence of Pep19 (0–10 μM) for 1 h at 30 °C. At the end of the incubation period, membranes were filtered using a Brandel filtration system and GF/B filters (presoaked for 2 h at room temperature with 0.1% polyethyleneimine containing 0.2% fatty acid free BSA), filters were washed 3 times with ice-cold 50 mM Tris-Cl (pH 7.4) and bound radioactivity measured using a liquid scintillation counter.
Supplemental Figure 1. Ligand binding studies with Pep19. Membranes were prepared from 3T3L-1 cells endogenously expressing CB1R, and displacement ligand binding assays were carried out as previously described8 with minor modifications. Membranes (250 μg) were incubated with [3H]SR141716A (3 nM) in 50 mM Tris-Cl, pH 7.8, containing 1 mM EGTA, 5 mM MgCl2, and protease inhibitor cocktail in the presence of Pep19 (0-10 μM).
Values in the absence of Pep19 were taken as 100%. Data represent mean ± […]
(1 picture or pasted object on this page, not shown here)

HeLa cells = format: cell-based; conditions: up to 100 µM, n = 3/group
Procedure: (§1) HeLa and HEK293-T cells were cultured in DMEM (Dulbecco’s Modified Eagle Medium, Gibco®, USA) containing 10% fetal bovine serum (complete medium), penicillin and streptomycin (Gibco®, USA) at 37 °C and in presence of 5% of CO2. For cell counting, single cell suspension of HeLa and HEK293-T cells were rinsed with PBS and treated with 0.4% Trypan blue in PBS for 90 s. Excess dye was removed, and the cells were washed twice with PBS before counting. For a control of 100% permeabilized cells they were treated with 50% ethanol for 1 min and then stained as described above. In all of the experiments cellular viability was greater than 98% (data not shown). The MTT (3-(4,5-dimethylthiazol-2-yl)-2,5-diphenyltetrazolium bromide) tetrazolium reduction assays were conducted in a 96-well format. The optical density was measured at 570 nm using a SpectraMax M2 (Molecular Devices, Sunnyvale, CA, USA). Three independent experiments were conducted in triplicates for each treatment.

HEK293T cells = format: cell-based; conditions: up to 100 µM, n = 3/group
Procedure: as §1

Male Wistar rats [1] = assay: Forced swim test; format: in vivo; conditions: first 5 min of the swim test, n = 6/group (Pep19), n = 8–10/group (rimonabant)
Procedure: The forced swim test was based on previous designs. Male Wistar rats were placed in a cylindrical plexiglass tank (50 cm high and 30 cm diameter) filled with water (19 °C) up to a level of 25 cm from the bottom. The animal’s behavior during the first 5 min of the swim test was scored by a trained observer and the following measures were taken: (1) time spent swimming, defined as movements of all four limbs, swimming around the tank or diving and (2) time spent floating, defined as the time the animal remained immobile with only occasional slight movements to keep the body balanced and the nose above the water.

Male C57BL/6J mice = format: in vivo; conditions: 0.1 or 1 mg/kg i.p. for 10 days
Procedure: Male C57BL/6J mice received a chronic treatment with Pep19 (0.1 or 1 mg/kg) or saline administrated i.p. for 10 days, once a day. The same animal was tested in the EPM and FST 30 and 35 minutes after the last injection, respectively.
Supplemental Figure 2. In vivo assays showing results of chronic treatment with Pep19 i.p. for 10 days. To further confirm the lack of in vivo effects of Pep19, it was chronically administrated for 10 days, and the behavior effects were evaluated in the tetrad cannabinoid tests, consisting of (a) catalepsy, (b) tail temperature, (c) locomotor activity and (d) hot plate test. Note that no […]
(saline) or Pep19 (one-way ANOVA followed by Tukey’s test, n = 6/group), […]
(a-d; * P<0.05). In the elevated plus maze (e, f) the anxiety-like activity of chronic administration was evaluated following i.p. injections of 0.1 or 1 mg/kg […]
groups treated with vehicle or Pep19 (one-way ANOVA followed by Tukey’s […]
locomotor (g) and speed travelled (h) in the elevated plus maze. In the forced swim test (i), chronic administration of Pep19 i.p. for 10 days produced no significant differences (one-way ANOVA followed by Tukey’s test, n = 6-7/ […]

Male Wistar rats [2] = assay: Elevated plus maze; format: in vivo; conditions: 100–600 µg/kg, one hour after administration, 5 min, n = 7–9/group
Procedure: Male Wistar rats were tested in a wooden-made elevated plus maze according to Hefner and Holmes[43] one hour after vehicle or Pep19 i.p. administration (100–600 µg/kg). The percentage of entries, time spent in the open arms, and the number of enclosed arms entries for 5 min were analyzed by the Anymaze Software (version 4.5, Stoelting, USA). Locomotor activity and speed traveled were also recorded.

DIO Wistar rats = assay: Tail-cuff blood pressure and heart rate in DIO rats; format: in vivo; conditions: oral by gavage, mean ± SEM
Procedure: Measurements of systolic blood pressure were performed at the proximal part of the tail, by a tail-cuff method using the Kent RTBP2000 system and the Kent RTB001-R data acquisition system (Kent Scientific Corporation, Torrington, CT, USA) from 9 to 11 a.m. Before measurements, rats were warmed for 10 min and three stable consecutive measurements were taken and averaged after animals have been trained for proper adaptation to the procedures.

CC[C@H](C)[C@H](NC(=O)[C@@H](NC(=O)[C@@H](N)CC(=O)O)[C@@H](C)CC)C(=O)N[C@@H](C)C(=O)N[C@@H](CC(=O)O)C(=O)N[C@@H](CC(=O)O)C(=O)N[C@@H](CCC(=O)O)C(=O)N1CCC[C@H]1C(=O)N[C@@H](CC(C)C)C(=O)N[C@H](C(=O)O)[C@@H](C)O [Pep19] (H-DIIADDEPLT-OH)
cannabinoid tetrad after chronic treatment (C57BL/6J mice; 0.1 or 1 mg/kg i.p. for 10 days, once a day, tested 30 minutes after last administration): significant differences were observed between the groups treated with vehicle
cannabinoid tetrad (catalepsy, hot plate, locomotor activity, tail temperature) (C57BL/6J mice; 0.1 or 1 mg/kg i.p., single administration): has no effect on the cannabinoid tetrad
IC50 (CB1R): ~4.9 pM
cell toxicity, MTT reduction assay (HeLa cells): has no ability to induce cell toxicity
cell toxicity, MTT reduction assay (HEK293T cells): has no ability to induce cell toxicity
forced swim test: time spent swimming and time spent floating (Male Wistar rats [1]): produced no significant differences
elevated plus maze after chronic treatment: anxiety-like activity, locomotor and speed travelled (Male C57BL/6J mice; 30 minutes after the last injection, n=6-7/group): no significant differences were observed
forced swim test after chronic treatment (Male C57BL/6J mice; 35 minutes after the last injection, n = 6-7/group): produced no
elevated plus maze: distance moved, speed, ratio of open/total arms entries and time spent (Male Wistar rats [2]): did not alter
Heart rate (DIO Wistar rats; 100 µg/Kg): 405.3 ± 2.3 (n = 3) beats/min
Heart rate (DIO Wistar rats; 300 µg/Kg): 399.9 ± 5.8 (n = 3) beats/min
Heart rate (DIO Wistar rats; 600 µg/Kg): 408.5 ± 4.1 (n = 3) beats/min
